# Results as given in patent publication US5753631A, “Intercellular adhesion mediators” (Cytel Corporation, priority 1995, dated 1998).
# Assays:
# [1] = system: IgG immune complex-induced acute lung injury; assay: IgG immune complex-induced acute lung injury in the rat; assay type: in vivo, rat (male Long-Evans); details: for effect on IgG immune complex-induced neutrophil accumulation / lung injury: conclusion in words
# [2] = system: histamine induced leukocyte rolling in rat mesenteric venules; assay: Histamine induced leukocyte rolling and adherence in rat mesenteric venules (intravital microscopy); assay type: in vivo, rat (male Sprague-Dawley); details: for effect on histamine induced leukocyte rolling: 10^-5 M histamine, FIG. 15; for Erythrocyte velocity / Leukocyte adherence / Leukocyte emigration / Venular diameter / Wall shear rate: with histamine 10^-5 M, Z, SLN 10 mg/Kg i.v., antibodies 2 mg/Kg i.v.
# Protocol: Surgical procedure. Sixty-four male Sprague-Dawley rats (200-250 g) were maintained on a purified laboratory diet and fasted for 24 hours prior to the experiment. The animals were initially anesthetized with pentobarbital (65 mg/kg body weight), then a tracheotomy was performed to facilitate breathing during the experiment. The right carotid artery was cannulated and systemic arterial pressure was measured with a Statham (Oxnard, Calif.) P23A pressure transducer connected to the carotid artery cannula. Systemic blood pressure and heart rate were continuously recorded with a Grass physiologic recorder (Grass Instruments, Massachusetts). The left jugular vein was also cannulated for drug administration and blood sample collection. After a midline abdominal incision a segment of the mid-jejunum was exteriorized. All exposed tissue was moistened with saline-soaked gauze to minimize evaporation and dehydration.
# Intravital microscopy. Rats were placed in a supine position on an adjustable plexiglass microscope stage and the mesentery was draped over an optically clear coverslip that allowed for observation of a 2 cm^2 segment of tissue. The temperature of the pedestal was maintained at 37° C. with a constant temperature circulator (Fisher Scientific, model 80). A small rubber gasket (area=3.14 cm^2) was placed on the mesentery and the outside area of contact between the gasket and mesentery was sealed (to prevent leakage of superfusate from the ring) with a mixture of high vacuum grease (Dow Corning Corp., Midland, Mich.) and white petrolatum (E. Fougera & Co., Melville, N.Y.). Rectal and mesenteric temperatures were continuously monitored using an electrothermometer. The exposed bowel wall was covered with Saran Wrap (Dow Chemical Co., Indiana), and the mesenteric tissue within the gasket was suffused with warmed bicarbonate-buffered saline (BBS; pH 7.4) that was bubbled with a mixture of 5% O2; 5% CO2; 90% N2.
# An inverted microscope (Nikon Optiphoto, Japan) with a ×40 objective lens (Nikon Optiphoto, Japan) and a ×10 eyepiece was used to observe the mesenteric microcirculation. The mesentery was transilluminated with a 12 V-100 W direct current-stabilized light source. A video camera (Hitachi, VK-C150, Japan) mounted on the microscope projected the image onto a color monitor (Sony, PVM-2030, Japan), and the images were recorded using a video cassette recorder (Panasonic, NV8950, Japan). A video time-date generator (Panasonic, WJ810, Japan) projected the time, date, and stopwatch function onto the monitor.
# Single unbranched venules with diameters ranging between 25 μm and 35 μm and a length>150 μm were selected for study. Venular diameter (Dv) was measured either on- or off-line using a video image-shearing monitor (IPM, La Mesa, Calif.). The number of adherent leukocytes was determined off-line during playback of videotaped images. A leukocyte was considered to be adherent to venular endothelium if it remained stationary for a period equal to or greater than 30 seconds. Adherent cells were expressed as the number per 100 μm length of venule. The number of emigrated leukocytes was also determined off-line during playback of videotaped images. Ary interstitial leukocytes present in the mesentery at the onset of the experiment were subtracted from the total number of leukocytes that accumulated during the course of the experiment. Leukocyte emigration was expressed as the number per microscopic field (1.7×10^-2 mm^2) or 150 μm length of venule. Rolling leukocytes were defined as those white blood cells that moved at a velocity less than that of erythrocytes in the same stream. The flux of rolling leukocytes was determined as the number of rolling leukocytes which crossed a fixed point on the venule over a given period of time. Leukocyte rolling velocity was determined from the time required for a leukocyte to roll along a given distance of the venule.
# [3] = system: coronary artery rings; assay: Acetylcholine-induced endothelial dependent relaxation of coronary artery rings from ischemic-reperfused cats; assay type: in vivo, cat; details: 10 mg/Kg i.v.; control 22±6%, P<0.01
# Protocol: (§1) A model of myocardial ischemia and reperfusion injury in cats was performed according to the methods of Tsao et al (Circulation 82:1402-1412 (1990), which is incorporated herein by reference. Briefly, male cats (2.5-3.5 Kg) were anesthetized with sodium pentobarbital (30 mg/Kg, i.v.). An intratracheal tube was inserted through a mid-line incision and all cats were given intermittent positive pressure ventilation by a Harvard small animal respirator. A polyethylene catheter was inserted into the external jugular vein and the right […] was cannulated and connected to a Statham P23AC pressure transducer for the measurement of arterial blood pressure. A midline thoracotomy was performed, the pericardium was opened and the heart was exposed. A 2-0 silk suture was carefully placed around the left anterior descending artery (LAD) 10-12 mm from its origin. […]
# (§2) Endothelial dependent relaxation of coronary artery rings was determined by measuring the acetylcholine-induced relaxation of rings previously contracted with the thromboxane A2 mimetic U46619. Data are expressed as percentage relaxation. Creatinine kinase enzyme levels were measured immunochemically in plasma samples collected at the end of the reperfusion period. The adherence of PMNs to sections of coronary artery was measured in vitro using fluorescene labelled autologous cat neutrophils.
# [4] = system: myocardial ischemia-reperfusion injury in the cat heart; assay: Myocardial ischemia-reperfusion injury in cats: ischemic myocardium; assay type: in vivo, cat (male); details: 10 mg/Kg i.v.; control 35±4%, P<0.01
# Protocol: A model of myocardial ischemia and reperfusion injury in cats was performed according to the methods of Tsao et al (Circulation 82:1402-1412 (1990), which is incorporated herein by reference. Briefly, male cats (2.5-3.5 Kg) were anesthetized with sodium pentobarbital (30 mg/Kg, i.v.). An intratracheal tube was inserted through a mid-line incision and all cats were given intermittent positive pressure ventilation by a Harvard small animal respirator. A polyethylene catheter was inserted into the external jugular vein and the right […] was cannulated and connected to a Statham P23AC pressure transducer for the measurement of arterial blood pressure. A midline thoracotomy was performed, the pericardium was opened and the heart was exposed. A 2-0 silk suture was carefully placed around the left anterior descending artery (LAD) 10-12 mm from its origin. After a 30 minute period of stabilization myocardial ischemia was initiated by complete ligation of the LAD for 1.5 hours of ischemia followed by 4.5 hours of reperfusion. Z (10 mg/Kg in PBS) or PBS alone were administered intravenously 10 minutes prior to the initiation of reperfusion.
# Area at risk was determined by reocclusion of the LAD at the end of the reperfusion period followed by the injection of Evans blue dye into the left atrium. The area of risk was, therefore, determined by negative staining.
# [5] = system: coronary vascular endothelium; assay: Adherence of cat PMNs to coronary endothelium in vitro; assay type: cell-based
# Protocol: as §2
# [6] = system: creatinine kinase; assay: Plasma creatinine kinase after myocardial ischemia-reperfusion in cats; assay type: in vivo, cat; details: 10 mg/Kg i.v.; control 25±3, P<0.01
# Protocol: as §1, §2
# [7] = i.v. at 2.5, 3.0 and 3.5 h (FIG. 18), P<0.05
smiles,measurement,setting,value
"CC(=O)NC1C(O)OC(CO)C(OC2OC(CO)C(O)C(OC3(C(=O)O)CC(O)C(NC(C)=O)C(C(O)C(O)CO)O3)C2O)C1O (stereo not drawn) [SLN, reference compound]",effect on IgG immune complex-induced neutrophil accumulation / lung injury,[1],did not inhibit IgG immune complex induced lung injury
same,effect on hemorrhage,[1]; versus PBS treated animals,no decrease in hemorrhage
same,effect on lung content of MPO,[1]; versus PBS treated animals,no decrease in lung content of MPO
same,effect on vascular permeability,[1]; versus PBS treated animals,no alteration in vascular permeability value
same,effect on histamine induced leukocyte rolling,[2],had no effect
same,Erythrocyte velocity,[2],3.0 ± 0.5 mm/sec
same,Leukocyte adherence,[2],5.5 ± 1.4 per 100 μm
same,Leukocyte emigration,[2],4.8 ± 2.8 per field
same,Venular diameter,[2],31 ± 2 μm
same,Wall shear rate,[2],495 ± 28 s⁻¹
"CCO[C@@H]1O[C@H](CO)[C@H](O)[C@H](O[C@@H]2O[C@H](CO)[C@@H](O[C@@H]3O[C@H](CO)[C@H](O)[C@H](O[C@]4(C(=O)O)C[C@H](O)[C@@H](NC(C)=O)[C@H]([C@H](O)[C@H](O)CO)O4)[C@H]3O)[C@H](O[C@@H]3O[C@@H](C)[C@@H](O)[C@@H](O)[C@@H]3O)[C@H]2NC(C)=O)[C@H]1O [Z, Ethyl(sodium(5-acetamido-3,5-dideoxy-α-D-glycero-D-galacto-2-nonulopyanosylonate))-(2-3)-O-(β-D-galactopyranosyl)-(1-4)-O-((α-L-fucopyranosyl)-(1-3))-O-(2-acetamido-2-deoxy-β-D-glucopyranosyl)-(1-3)-O-β-D-galactopyranoside]",endothelial dependent relaxation to acetylcholine,[3],73±7%
same,"extent of myocardial ischemia, of the area at risk",[4],6±1%
same,effect on lung MPO content,[1]; 50 μg (FIG. 19),did not significantly reduce MPO content
same,effect on lung MPO content,"[1]; 100, 200 and 300 μg (FIG. 19)",significant reductions
same,effect on vascular permeability,"[1]; all doses, 50-500 μg (FIG. 19)",significant reductions in vascular permeability
same,effect on IgG immune complex-induced neutrophil accumulation / lung injury,[1],blocked IgG
same,reduction in MPO content,[1]; [7],27%
same,reduction in permeability,[1]; [7],20%
same,reduction in hemorrhage,"[1]; i.v. at 2.5, 3.0 and 3.5 h (FIG. 18), P=N.S.",21%
same,effect on hemorrhage,[1]; two highest doses (FIG. 19),statistically significant reductions in hemorrhage
same,adhesion of cat PMNs to thrombin stimulated coronary vascular endothelium,"[5]; 250μM, thrombin 2 unit/mL",blocked the adhesion of cat PMNs
same,adherence of PMNs to coronary endothelium from treated animals,[5]; endothelium from treated animals versus control animals,less than that determined in control animals
same,effect on leukocyte adherence induced by 10^-5 M histamine,[2]; 10 mg/Kg i.v.,significantly attenuated
same,effect on histamine induced leukocyte rolling,[2],inhibited leukocyte rolling
same,Erythrocyte velocity,[2],2.1 ± 0.2 mm/sec
same,Leukocyte adherence,[2],2.3 ± 1.9 per 100 μm
same,Leukocyte emigration,[2],2.0 ± 1.2 per field
same,Venular diameter,[2],29 ± 0.2 μm
same,Wall shear rate,[2],355 ± 14 s⁻¹
same,plasma concentration of creatinine kinase,[6],7±1 IU/mg protein
